Read-outs that look alike come from different tables or passages of the source.
Experiments:
Format in all cases: in vivo
[1] = tested on: Puccinia recondita (Wheat); assay: Foliar fungal disease test on plants: Puccinia recondita (Wheat)
Protocol: (§1) The compounds were tested against a variety of foliar fungal diseases of plants. The technique employed was as follows.
The plants were grown in John Innes Potting Compost (No 1 or 2) in 4 cm diameter minipots. The test compounds were formulated either by bead milling with aqueous DISPERSOL T or as a solution in acetone or acetone/ethanol which was diluted to the required concentration immediately before use. The formulations (100 ppm active ingredient) were sprayed on to the foliage or applied to the roots of the plants in the soil. The sprays were applied to maximum retention and the root drenches to a final concentration equivalent to approximately 40 ppm a.i. in dry soil. TWEEN 20 was added to give a final concentration of 0.05% when the sprays were applied to cereals.
[…] An exception was the test on Erysiphe graminis in which the plants were inoculated 24 hours before treatment. Foliar pathogens were applied by spray as zoosporangial suspensions onto the leaves of test plants. After inoculation, the plants were put into an appropriate environment to allow infection to proceed and then incubated until the disease was ready for assessment. The period between inoculation and assessment varied from four to fourteen days according to the disease and environment.
(§2) The disease level present (i.e. leaf area covered by actively sporulating disease) on each of the treated plants was recorded using the following assessment scale:
(§3) Each assessment was then expressed as a percentage of the level of disease present on the untreated control plants. This calculated value is referred to as a POCO (Percentage of Control) value. An example of a typical calculation is as follows:
(§4) Disease level on untreated control=90
(§5) Disese level on treated plant=30 [formula]
(§6) This calculated POCO value is then rounded to the nearest of the values in the 9-point assessment scale shown above. In this particular example, the POCO value would be rounded to 30. If the calculated POCO falls exactly mid-way between two of the points, it is rounded to the lower of the two values.

[2] = tested on: Plasmopara viticola (Vines); assay: Foliar fungal disease test on plants: Plasmopara viticola (Vines); conditions: one or two days before inoculation
Protocol: as §1
(§7) The plants were grown in John Innes Potting Compost (No 1 or 2) in 4 cm diameter minipots. The test compounds were formulated either by bead milling with aqueous DISPERSOL T or as a solution in acetone or acetone/ethanol which was diluted to the required concentration immediately before use. […] The sprays were applied to maximum retention and the root drenches to a final concentration equivalent to approximately 40 ppm a.i. in dry soil. TWEEN 20 was added to give a final concentration of 0.05% when the sprays were applied to cereals.
(§8) For most of the tests the compounds were applied to the soil (roots) or to the foliage (by spraying) one or two days before the plant was inoculated with the disease. An exception was the test on Erysiphe graminis in which the plants were inoculated 24 hours before treatment. Foliar pathogens were applied by spray as zoosporangial suspensions onto the leaves of test plants. After inoculation, the plants were put into an appropriate environment to allow infection to proceed and then incubated until the disease was ready for assessment. The period between inoculation and assessment varied from four to fourteen days according to the disease and environment.
as §2, §3, §4, §5, §6

[3] = tested on: Erysiphe graminis tritici (Wheat); assay: Foliar fungal disease test on plants: Erysiphe graminis tritici (Wheat); conditions: plants inoculated 24 hours before treatment
Protocol: as §1, §7, §8, §2, §3, §4, §5, §6

[4] = tested on: Pyricularia oryzae (Rice); conditions: one or two days before inoculation
Septoria nodorum (Wheat) = assay: Foliar fungal disease test on plants: Septoria nodorum (Wheat); conditions: one or two days before inoculation
Protocol: as §1, §7, §8, §2, §3, §4, §5, §6

[5] = tested on: Phytophthora infestans (Tomatoes); conditions: one or two days before inoculation
[6] = tested on: Venturia inaequalis (Apples); assay: Foliar fungal disease test on plants: Venturia inaequalis (Apples); conditions: one or two days before inoculation
Protocol: as §1, §7, §8, §2, §3, §4, §5, §6

[7] = tested on: Thanatephorus cucumeries (Rice); assay: Foliar fungal disease test on plants: Thanatephorus cucumeries (Rice); conditions: one or two days before inoculation
Protocol: as §1, §7, §8, §2, §3, §4, §5, §6

[8] = 100 ppm a.i. foliar spray or root drench (approx. 40 ppm in dry soil), one or two days before inoculation
[9] = 100 ppm a.i. foliar spray or root drench (approx. 40 ppm in dry soil)
[10] = 10 ppm foliar spray only, plants inoculated with Puccinia recondita 48 hours before treatment
[11] = 100 ppm a.i. foliar spray or root drench, plants inoculated with Puccinia recondita 48 hours before treatment

SMILES | POCO (Percentage of Control) disease level, Puccinia recondita (Wheat) [1, 8] | POCO (Percentage of Control) disease level, Plasmopara viticola (Vines) [2, 9] | POCO (Percentage of Control) disease level, Erysiphe graminis tritici (Wheat) [3, 9] | POCO (Percentage of Control) disease level, Pyricularia oryzae (Rice) [4, 9] | POCO (Percentage of Control) disease level, Septoria nodorum (Wheat) (Septoria nodorum (Wheat); [9]) | POCO (Percentage of Control) disease level, Phytophthora infestans (Tomatoes) [5, 9] | POCO (Percentage of Control) disease level, Venturia inaequalis (Apples) [6, 9] | POCO (Percentage of Control) disease level, Puccinia recondita (Wheat) [1, 10] | POCO (Percentage of Control) disease level, Thanatephorus cucumeries (Rice) ([7]; 10 ppm foliar spray only) | POCO (Percentage of Control) disease level, Plasmopara viticola (Vines) ([2]; 10 ppm foliar spray only) | POCO (Percentage of Control) disease level, Erysiphe graminis tritici (Wheat) ([3]; 10 ppm foliar spray only) | POCO (Percentage of Control) disease level, Pyricularia oryzae (Rice) ([4]; 10 ppm foliar spray only) | POCO (Percentage of Control) disease level, Septoria nodorum (Wheat) (Septoria nodorum (Wheat); 10 ppm foliar spray only) | POCO (Percentage of Control) disease level, Phytophthora infestans (Tomatoes) ([5]; 10 ppm foliar spray only) | POCO (Percentage of Control) disease level, Venturia inaequalis (Apples) ([6]; 10 ppm foliar spray only) | POCO (Percentage of Control) disease level, Thanatephorus cucumeries (Rice) [7, 9] | POCO (Percentage of Control) disease level, Puccinia recondita (Wheat) [1, 11]
CO/C=C(/Oc1ccccc1OC(=O)NC(=O)c1ccccc1)C(=O)OC [1 (17), (E)-methyl 2-[2-((benzoyl)carbamoyloxy)phenoxy]-3-methoxypropenoate] | 24 (20 and 24 = 10.1-20% disease present) | 24 (20 and 24 = 10.1-20% disease present) | 94 (90 and 94 = 60.1-100% disease present) | 94 (90 and 94 = 60.1-100% disease present) | 94 (90 and 94 = 60.1-100% disease present) | 24 (20 and 24 = 10.1-20% disease present) | 0 (0 = 0% disease present) | – | – | – | – | – | – | – | – | – | –
COC=C(C(=O)OC)c1ccccc1COC(=O)n1ccc2ccccc21 [1 (133)] | – | – | – | – | – | – | – | 90+ (90 and 94 = 60.1-100% disease present) | 60 (60 = 30.1-60% disease present) | 0 (0 = 0% disease present) | 90 (90 and 94 = 60.1-100% disease present) | 90 (90 and 94 = 60.1-100% disease present) | 90 (90 and 94 = 60.1-100% disease present) | 90 (90 and 94 = 60.1-100% disease present) | 30 (30 = 20.1-30% disease present) | – | –
CO/C=C(/C(=O)OC)c1ccccc1COC(=O)Nc1cccc(C(F)(F)F)c1 [2 (1), (E)-methyl 3-methoxy-2-[2-((3-trifluoromethylphenyl)carbamoyloxymethyl)phenyl]-propenoate] | 10 (10 = 5.1-10% disease present) | 10 (10 = 5.1-10% disease present) | 60 (60 = 30.1-60% disease present) | 5 (5 = 3.1-5% disease present) | 20 (20 and 24 = 10.1-20% disease present) | 10 (10 = 5.1-10% disease present) | 0 (0 = 0% disease present) | – | – | – | – | – | – | – | – | 60 (60 = 30.1-60% disease present) | –
COC=C(C(=O)OC)c1ccccc1COC(=O)N(C)c1cccc(C(F)(F)F)c1 [2 (2)] | 0 (0 = 0% disease present) | 0 (0 = 0% disease present) | 0 (0 = 0% disease present) | 5 (5 = 3.1-5% disease present) | 0 (0 = 0% disease present) | 90 (90 and 94 = 60.1-100% disease present) | 0 (0 = 0% disease present) | – | – | – | – | – | – | – | – | 30 (30 = 20.1-30% disease present) | –
COC=C(C(=O)OC)c1ccccc1COC(=S)Nc1cccc(C(F)(F)F)c1 [2 (6)] | 30 (30 = 20.1-30% disease present) | 30 (30 = 20.1-30% disease present) | 60 (60 = 30.1-60% disease present) | 5 (5 = 3.1-5% disease present) | 60 (60 = 30.1-60% disease present) | 60 (60 = 30.1-60% disease present) | 3 (3 = 1.1-3% disease present) | – | – | – | – | – | – | – | – | 90 (90 and 94 = 60.1-100% disease present) | –
COC=C(C(=O)OC)c1ccccc1COC(=O)Nc1cccc(SC)c1 [10 (1)] | – | – | – | – | – | – | – | 90+ (90 and 94 = 60.1-100% disease present) | 90 (90 and 94 = 60.1-100% disease present) | 90 (90 and 94 = 60.1-100% disease present) | 90 (90 and 94 = 60.1-100% disease present) | – | 90 (90 and 94 = 60.1-100% disease present) | 90 (90 and 94 = 60.1-100% disease present) | 0 (0 = 0% disease present) | – | –
CCN(C(=O)OCc1ccccc1C(=COC)C(=O)OC)c1ccc(F)c(Cl)c1 [104 (3)] | – | 0 (0 = 0% disease present) | 0 (0 = 0% disease present) | – | 10 (10 = 5.1-10% disease present) | 10 (10 = 5.1-10% disease present) | 0 (0 = 0% disease present) | – | – | – | – | – | – | – | – | 0 (0 = 0% disease present) | 0+ (0 = 0% disease present)
COC=C(C(=O)OC)c1ccccc1COC(=O)N(C)c1cccc([N+](=O)[O-])c1F [106 (2)] | – | 0 (0 = 0% disease present) | 0 (0 = 0% disease present) | – | 30 (30 = 20.1-30% disease present) | 60 (60 = 30.1-60% disease present) | 0 (0 = 0% disease present) | – | – | – | – | – | – | – | – | 0 (0 = 0% disease present) | 30+ (30 = 20.1-30% disease present)
CCN(C(=O)OCc1ccccc1C(=COC)C(=O)OC)c1cccc([N+](=O)[O-])c1F [106 (3)] | – | 0 (0 = 0% disease present) | 30 (30 = 20.1-30% disease present) | – | 60 (60 = 30.1-60% disease present) | 90 (90 and 94 = 60.1-100% disease present) | 0 (0 = 0% disease present) | – | – | – | – | – | – | – | – | 0 (0 = 0% disease present) | 60+ (60 = 30.1-60% disease present)

From patent US6465457B1 (priority 1991, dated 2002)
